Laboratory results from patent US20110020463A1, “THERAPEUTIC AGENT FOR FIBROMYALGIA SYNDROME AND THERAPEUTIC AGENT FOR PAIN CAUSED BY MUSCLE SPASM” (priority 2008, published 2011).

Experiments:
right blepharism = conditions: human, in vivo
fibromyalgia syndrome = conditions: human, in vivo

## botulinum toxin
Right blepharism
  effect on right blepharism (eyelid): extremely effective
Fibromyalgia syndrome
  effect on generalized myalgia: no effect
